The record followed here is PubChem BioAssay AID1963843 (Molecular Pharmacology Branch, DTP, NCI, 2024).

In this assay the test system is 616215-338-R-J1-PDC complex spheroid viability. Put plainly: Anticancer human tumor 616215-338-R-J1-PDC patient-derived colon adenocarcinoma cell line growth inhibition [POLQ]. To be noted: for viability, T/C: stronger effect = lower value. As to the method: Multicellular complex tumor spheroid response to Polymerase (POL) inhibitors (novobiocin, ART-558, RP6685) in combination with a variety of drugs and investigational agents in selected tumor cell lines
The POL inhibitors (novobiocin, ART-558, and RP6685) were evaluated both individually and in combination with standard of care and investigational anticancer small molecules within a complex spheroid model of solid tumors. . Complex spheroids include a stromal component modeled by human endothelial cells (HUVEC) and fibroblasts modeled by human mesenchymal stem cells (MSCs). The concentration ranges selected for each drug and investigational agent were based upon clinically achievable concentrations if the clinical Cmax of the agent was known.
Compounds. The drugs and investigational agents: novobiocin (NSC847541), ART-558 (NSC835418), RP-6685 (NSC848927), peposertib (NSC802822), ceralasertib (NSC780249), elimusertib (NSC800525), camonsertib (NSC841442), AZD-1390 (NSC803789), olaparib (NSC753686), talazoparib (NSC767125), rucaparib (NSC756644), sotorasib (NSC818433), MRTX-1133 (NSC836407), SN-38 (NSC673596), topotecan (NSC609699), epotoside (NSC141540), doxorubicin (NSC123127), gemcitabine (NSC613327), 5-fluorouracil (NSC19893), paclitaxel (NSC125973), vemurafenib (NSC761431), MSA-2 (NSC828583), SN-011 (NSC837082), adavosertib (NSC754352), prexasertib (NSC758257), carboplatin (NSC241240) and oxaliplatin (NSC266046), were obtained from the National Cancer Institute (NCI) Developmental Therapeutics Program Chemical Repository (21). The FDA-approved anticancer drug set is available from the Developmental Therapeutics Program at https://dtp.cancer.gov/organization/dscb/obtaining/. […] The stock solutions were prepared in dimethyl sulfoxide (DMSO, Sigma-Aldrich, St. Louis, MO, cat. D2650), except for the platinum compounds which were prepared in saline (Quality Biological, Gaithersburg, MD, cat. 114-055-101), at 800-fold the tested concentration and stored at -70 degrees C prior to their use. All drugs and investigational agents were tested over a range starting from a high concentration at or near the clinical Cmax and decreasing in half-log increments. If the clinical Cmax for an agent had not been determined, the highest concentration tested was 10 microM, except for SN-38, which was tested at a high concentration of 1 microM.
Cell Culture. All cells were maintained in an incubator at 37 degrees C and 5% CO2 with 95% humidity. The PDC lines were cultured according to standard operating procedures established by the NCI PDMR (https://pdmr.cancer.gov). Table 3 of the manuscript, lists the cell lines along with the number of the three cell types plated to form the mct-spheroids and media for tumor cell growth. After thawing, all PDC lines, except 997537-175-T-J1-PDC and 415267-285-R-J2-PDC, were cultured in Matrigel-coated flasks prepared with a working solution of 1X Ham's F-12 nutrient mix, without supplementation (Thermo Fisher Scientific, cat. 11765054), 100 U/mL penicillin-streptomycin (Thermo Fisher Scientific, cat. 15140122), and 2.5% Matrigel (Corning Inc., Corning, NY, cat. 354248) for the first three passages. The two PDC lines 997537-175-T-J1-PDC and 415267-285-R-J2-PDC were cultured on uncoated flasks. The 857933-349-R-J2-PDC line was cultured in 6C/Colon 1B media containing advanced DMEM/F-12 (Thermo Fisher Scientific, cat. 12634028), 10 mM HEPES (Thermo Fisher Scientific, cat. 15630080), 1X GlutaMAX supplement (Thermo Fisher Scientific, cat. 35050061), 0.1 mg/mL primocin (InvivoGen, San Diego, CA, cat. ant-pm-2), 10% defined fetal bovine serum, heat inactivated (HyClone Laboratories Inc., Logan, UT, cat. SH30070.03HI), 50% L-WRN conditioned media (ATCC, cat. CRL-3276), 1.25 mM N-Acetyl-L-cysteine (Sigma-Aldrich, cat. A9165), 10 mM nicotinamide (Sigma-Aldrich, cat. N0636), 1X B-27 supplement (Thermo Fisher Scientific, cat. 17504044), 1X N-2 supplement (Thermo Fisher Scientific, cat. […]

The mark [1] stands for this setting: compound alone, run of 12/05/2023.

Values joined by “and” are separate entries in the source; they are usually repeats but may differ in a detail not shown here. Equal values may be shown once.
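Further: spheroids exposed to compounds for one week before readout.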
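Wherever viability, T/C is given: percent viability relative to DMSO vehicle wells taken as 100%.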

As a reminder, the viability, T/C is the ratio of treated to control. A word on the IC50: it is the concentration needed to halve the response being measured. On to `COc1cc(C2c3cc4c(cc3C(OC3OC5COC(C)OC5C(O)C3O)C3COC(=O)C23)OCO4)cc(OC)c1O` (stereo not given), for which the viability, T/C (compound 0.0316 µM) is 96.8% and 101% and 99.5%; the viability, T/C (compound 0.1 µM) is 107% and 95.5% and 104%; the viability, T/C (compound 0.316 µM) is 86.7% and 58% and 91.3%; the viability, T/C (compound 1 µM) was 88.7% and 52.2% and 78.8%; the viability, T/C (compound 3.16 µM) is 76.6% and 46.9% and 73%; the viability, T/C (compound 10 µM) is 46.8% and 28.6% and 54.6%. Further, for the setting “curve of compound”, the IC50 was 9060 nM and 1040 nM and > 10000 nM.

With `COc1ccc([C@@H](O)c2cc(-c3ncnc4cc(N5CCOCC5)ccc34)c(F)cc2Cl)nn1`, the viability, T/C is 115% and 87.7% and 103% (compound 0.0316 µM); 107% and 104% and 100% (compound 0.1 µM); 105% and 93.9% and 110% (compound 0.316 µM); 93.6% and 86.9% and 104% (compound 1 µM); 100% and 81.2% and 104% (compound 3.16 µM); 69.3% and 54.8% and 75.3% (compound 10 µM). Further, the IC50 (curve of compound) was over 10000 nM.

Regarding `COc1cccc(OCCCN)c1-c1cc(Nc2cnc(C#N)cn2)n[nH]1`, the viability, T/C is 95.5% and 106% and 104% (compound 0.00316 µM); 101% and 98.7% and 97.4% (compound 0.01 µM); 88.6% and 68.9% and 76.7% (compound 0.0316 µM); 86.1% and 63.8% and 55.3% (compound 0.1 µM); 64.6% and 33.6% and 49.9% (compound 0.316 µM); 55.9% and 30.1% and 34.7% (compound 1 µM). For the same molecule, under “curve of compound”, the IC50 is > 1000 nM and 150 nM and 201 nM.

As for `COc1cccc2c1C(=O)c1c(O)c3c(c(O)c1C2=O)CC(O)(C(=O)CO)CC3OC1CC(N)C(O)C(C)O1` (stereo not given), the viability, T/C is, setting by setting: (compound 0.0316 µM) 95.8% and 65% and 107%; (compound 0.1 µM) 89.2% and 52.3% and 101%; (compound 0.316 µM) 78.2% and 37.8% and 76.8%; (compound 1 µM) 60.1% and 25.3% and 60.5%; (compound 3.16 µM) 7.28% and 2.34% and 9.83%; (compound 10 µM) 0.55% and 0.17% and 0.93%. Further, where the note is “curve of compound”, the IC50 was 1190 nM and 133 nM and 1060 nM.

With `Cc1cccc(N(C)C(=O)C2C(O)CCN2c2nc(C)cc(C(F)(F)F)c2C#N)c1` (stereo not given), the viability, T/C was 97.4% [middle of 13 runs] (compound 0.0316 µM); 99% [middle of 13 runs] (compound 0.1 µM); 100% [middle of 13 runs] (compound 0.316 µM); 105% [middle of 13 runs] (compound 1 µM); 104% [middle of 13 runs] (compound 3.16 µM); 102% [middle of 12 runs] (compound 10 µM). Further, the IC50 is, setting by setting: (compound alone, run of 11/27/2023) over 10000 nM; under setting [1], over 10000 nM.

As to `Cn1ncnc1[C@H]1c2n[nH]c(=O)c3cc(F)cc(c23)N[C@@H]1c1ccc(F)cc1`, the viability, T/C was 90.3% and 102% and 97.5% (compound 0.000316 µM); 104% and 91.8% and 103% (compound 0.001 µM); 102% and 98.1% and 97.2% (compound 0.00316 µM); 94% and 95.9% and 104% (compound 0.01 µM); 110% and 96.1% and 101% (compound 0.0316 µM); 105% and 87.5% and 106% (compound 0.1 µM). Also, the IC50 (curve of compound) was over 100 nM.

Take `Nc1ccc(C#CCN(C(=O)Cc2ncc(C(F)(F)F)cc2C(F)(F)F)c2ccc(F)cc2)nn1`: the viability, T/C is, setting by setting: (compound 0.0316 µM) 103% [middle of 13 runs]; (compound 0.1 µM) 104% [middle of 13 runs]; (compound 0.316 µM) 105% [middle of 13 runs]; (compound 1 µM) 102% [middle of 13 runs]; (compound 3.16 µM) 102% [middle of 13 runs]; (compound 10 µM) 94.5% [middle of 13 runs]. Besides, under setting [1], the IC50 is over 10000 nM.

Take `Nc1ccn(C2OC(CO)C(O)C2(F)F)c(=O)n1` (stereo not given): the viability, T/C is 49.9% and 23.8% and 51.6% (compound 0.0316 µM); 31.7% and 15.1% and 34.2% (compound 0.1 µM); 23.7% and 12.2% and 23.2% (compound 0.316 µM); 30.1% and 13.1% and 30.2% (compound 1 µM); 31.8% and 14.3% and 32.1% (compound 3.16 µM); 34.7% and 16.4% and 33.6% (compound 10 µM). The 50% inhibitory concentration (IC50) (curve of compound) was under 31.6 nM.

Regarding `O=C(c1cc(Cc2n[nH]c(=O)c3ccccc23)ccc1F)N1CCN(C(=O)C2CC2)CC1`, the viability, T/C was 89.5% and 67.6% and 97.3% (compound 0.0316 µM); 103% and 72.8% and 110% (compound 0.1 µM); 102% and 71.6% and 106% (compound 0.316 µM); 101% (2×) and 72.6% (compound 1 µM); 101% and 73.1% and 87.7% (compound 3.16 µM); 99.3% and 58.1% and 60.9% (compound 10 µM). The IC50 (curve of compound) is over 10000 nM.

Regarding `O=c1[nH]cc(F)c(=O)[nH]1`, the viability, T/C is 83.7% and 97.8% and 96% (compound 0.0316 µM); 96.6% and 86.5% and 89.8% (compound 0.1 µM); 68.4% and 54.6% and 65.8% (compound 0.316 µM); 65.9% and 43.5% and 65.6% (compound 1 µM); 63.8% and 43.7% and 60.7% (compound 3.16 µM); 62.4% and 39.2% and 60.1% (compound 10 µM).
